Assay results: US20240091227A1, “Use Of 2-Phenyl-6-(1H-Imidazol-1-YL) Quinazoline For Treating Neurodegenerative Diseases, Preferably Alzheimer's Disease” (ROTTAPHARM BIOTECH S.R.L., priority 2019, published 2024)
Where “and” joins values, the source holds several entries; their conditions need not be identical. Equal entries are not always repeated. Where two headings read alike, the source gives them in different places.

Columns and labels:
IL-1β = IL-1β gene expression in IL-1β-stimulated U373 MG astrocytoma cells (RT-PCR); format: cell-based, human; conditions: IL-1β 2 ng/ml
Description: (§1) A model of astrocytes, the human glioblastoma astrocytoma cell line U373 MG (Uppsala), was used for these experiments. Adherent cells were grown in DMEM medium supplemented with 10% FBS at 37° C. with CO2. 72 hours after plating, cells were treated for 1 h with 2-phenyl-6-(1H-imidazol-1-yl)quinazoline (CR4056) (10 μM) prepared according to EP2066653 and then stimulated with the pro-inflammatory cytokine IL-1β (2 ng/mL) for further 6 and 24 h.
(§2) At the end of incubation period, total RNA was obtained and retro-transcribed using the High-Capacity cDNA Reverse Transcription Kit (Thermo Fisher Scientific). The levels of expression of COX-2, IL-1β, IL-6 and TNFα were evaluated by RT-PCR analysis, performed using the Applied Biosystems 7500 Fast Real-Time PCR System using specific TaqMan assays and, as an endogenous control, the 18S Pre-Developed TaqMan® Assay (Thermo Fisher Scientific). The data analysis, with normalisation on 18S amplified values, was according to Thermo Fisher Scientific specific instructions for gene expression relative quantification. All individual data were the result of at least three different measurements for each sample.
(§3) Percentage of gene expression inhibition observed in U373 cells stimulated with IL-1β 2 ng/ml and exposed to 10 μM CR4056 for the indicated time.

IL-6 = IL-6 gene expression in IL-1β-stimulated U373 MG astrocytoma cells (RT-PCR); format: cell-based, human; conditions: IL-1β 2 ng/ml
Description: as §1, §2, §3

TNFα = TNFα gene expression in IL-1β-stimulated U373 MG astrocytoma cells (RT-PCR); format: cell-based, human; conditions: IL-1β 2 ng/ml
Description: as §1, §2, §3

[1] = tested on: Mice treated with scopolamine; experiment: Novel object recognition in scopolamine-induced memory impairment; format: in vivo, mouse; conditions: scopolamine 1 mg/kg ip, CR4056 6 and 20 mg/kg os
Description: FIG. 5 reports the results of Novel Object recognition test in the model of scopolamine-induced memory loss. Data presented as % of time spent on exploration of new and old object in testing phase. *p<0.05; **P<0.01; t student test (n=6).
The novel object recognition test was used to evaluate cognitive function based on the ability of mice to recognize various object proposed in the arena test. During the training phase a pair of identical objects were placed in the cage test. 24 hours after the first phase, during the testing phase one of the two object was replaced by a new different one. Time of exploration of each object was recorded in training and testing phase. The typical approach of mice was a similar exploration of the objects in training phase and a preference for the new object during the testing phase. The administration of substances that can worsen cognitive performance (i.e., scopolamine) caused the deletion of reminder of the old object and an equal exploration of 2 different objects. Scopolamine 1 mg/kg was administered ip 20 minutes before the training, whereas CR4056 6 and 20 mg/kg was administered os 40 minutes before the training.

Transgenic 5XFAD mice = experiment: Novel object recognition in transgenic 5XFAD mice model of Alzheimer's disease; format: in vivo, mouse; conditions: 30 mg/kg orally once a day for 10 days
Excerpt: FIG. 6 reports the results of Novel Object Recognition test in transgenic 5XFAD mice model of Alzheimer disease. (Obj C=new object) *p<0.0001, unpaired t Student test.
Transgenic 5XFAD mice, overexpressing the human amyloid precursor protein (APP695) with Swedish (K670N/M671L), Florida (I716V) and London (V717I) familial Alzheimer's disease (FAD) mutations, as well as human Presenilin1 (PS1) with M146L and L286V FAD mutations were used as Alzheimer's disease model. 6 months old female transgenic 5XFAD mice and wild-type controls (WT) were treated orally (gavage) with 30 mg/kg of CR4056 or vehicle once a day for a period of 10 days (n=4 WT/Vehicle, 8 WT/CR4056, 2 5XFAD/Vehicle, and 3 5XFAD/CR4056). Following repeated treatments, hippocampal-dependent memory was tested using the novel object recognition task. The object recognition test measures working and spatial memory. In the training phase, animals were placed in the arena with objects constructed from large plastic bricks. In the testing phase, one object was replaced by a novel object. Animals were returned in the arena and allowed to explore. Exploration of objects was observed and recorded. Mice should recognize that a new object has been placed and therefore explore this object for longer time.

[2] = Brain penetration: plasma and brain levels by LC/MS/MS after oral administration; format: in vivo, rat; conditions: 30 mg/kg PO, fasted; for concentration at 1 h / Kp at 1 h: male, Sprague Dawley, rat, po, 30 mg/kg; for Kp at 1 h: brain/plasma
Description: CR 4056 was determined in rat plasma and in rat brain and plasma using a LC/MS/MS method. Male Sprague Dawley rats, Harlan, were treated orally with a CR 4056 suspension (Methocel 0.5%) at the dose of 30 mg/kg. Oral administration was performed by gastric gavage to 3 animals per group (5 ml/kg). The compound was detected in plasma and in brain 1 hour after the treatment.
Each rat brain was weighted and cut in half. Each cerebral hemisphere was weighted and homogenized with two different methodologies. One was liquidization by Ultra turrax tube drive (IKA), adding an aliquot of buffer solution (10 mM ammonium formate pH 3.5) three times the weight of the hemisphere. Then 30 μl of the extract solution were added to 0.25 ml of methanol in a 1.5 ml eppendorf tube, vortex-mixed and centrifugated for 5 min at 13500 rpm at 4° C. the supernatant was transferred to a 96-deep well plates 2 mL round (Axygen) and injected into the LC/MS/MS system. The second one was cryogenic grinding with Mikro Dismembrator (Sartorius). Each cerebral hemisphere was weighted, put in a 20 mL teflon vessel with a steel sphere (7.85 g/ml dia 10 mm) and frozen by immersion in liquid nitrogen for 5 minutes. The deep frozen brain was ground with Mikro Dismembrator at 2500 rpm for 30 sec, the freezing/grinding cycle was repeated twice. A portion of powder was accurately weighted (ca. 10 mg) in a 1.5 ml eppendorf tube, 0.25 ml of methanol were then added. After vortex-mixing and centrifugation for 5 min at 13500 rpm at 4° C., the supernatant was placed in a 96-deep well plates 2 mL round (Axygen) and injected into the LC/MS/MS system. Both methods used for homogenization gave similar results showing that the extraction efficiency was similar for both methods.
Individual plasma and brain levels and brain plasma ratio after oral administration (30 mg/kg) of CR 4056 suspension to male Sprague Dawley rats in fasted conditions (rats were scarified 60 minutes after the PO administration) are shown in the following table.

rats = experiment: Irwin test (neurobehavioral changes); format: in vivo, rat; conditions: suprapharmacological concentrations
Excerpt: These findings indicate that CR4056 could be a safe drug for treating neurodegenerative diseases, and, in particular, Alzheimer disease.

[3] = individual male Sprague Dawley rats, 1 h

For `c1ccc(-c2ncc3cc(-n4ccnc4)ccc3n2)cc1` [CR4056, 2-phenyl-6-(1H-imidazol-1-yl)quinazoline], the “Percentage of gene expression inhibition, IL-1β” value (IL-1β; 10 μM CR4056, 6 h) was 20%, the “Percentage of gene expression inhibition, IL-1β” value (IL-1β; 10 μM CR4056, 24 h) was 29% and the “Percentage of gene expression inhibition, IL-6” value (IL-6; 10 μM CR4056, 6 h) was “not yet modulated”. For the same compound, the “Percentage of gene expression inhibition, IL-6” value (IL-6; 10 μM CR4056, 24 h) was 39%, the “Percentage of gene expression inhibition, TNF-α” value (TNFα; 10 μM CR4056, 6 h) was “not yet modulated” and the “Percentage of gene expression inhibition, TNF-α” value (TNFα; 10 μM CR4056, 24 h) was 52%. The “Time of exploration of the new object in testing phase, novel object recognition” value [1] was “increased the time of exploration of the new object”, the “Working and spatial memory, novel object recognition” value (Transgenic 5XFAD mice) was “significant improvement in the working and spatial memory” and the Brain/plasma ratio [2, 3] was 12.4 and 11.4. The “Mean Brain Concentration” value [2, 3] was 35492 ng/g and 27745 ng/g, the “Plasmatic Concentration” value [2, 3] was 2860 ng/mL and 2430 ng/mL and the concentration at 1 h ([2]; brain, individual male Sprague Dawley rats, read-out: Mean Brain Concentration) was 33600 ng/g. The concentration at 1 h ([2]; brain, male Sprague Dawley rats, read-out: Mean Brain Concentration, mean of 3 rats) was 32300 ng/g, the Kp at 1 h ([2]; individual male Sprague Dawley rats, read-out: Brain/plasma ratio) was 11.7 and the Kp at 1 h ([2]; male Sprague Dawley rats, read-out: Brain/plasma ratio, mean of 3 rats) was 11.8. The concentration at 1 h ([2]; plasma, individual male Sprague Dawley rats, read-out: Plasmatic Concentration) was 2860 ng/mL, the concentration at 1 h ([2]; plasma, male Sprague Dawley rats, read-out: Plasmatic Concentration, mean of 3 rats) was 2720 ng/mL and the “Neurobehavioral changes (Irwin test)” value (rats) was “neither neurobehavioral changes”.
